Reference: ChEMBL document CHEMBL3132800, “Identification of novel inhibitors of p53MDM2 interaction facilitated by pharmacophore-based virtual screening combining molecular docking strategy” (Medchemcomm, 2013)
pIC50: −log10 of the molar value.

Assays:
[1] = target: Tumour suppressor p53/oncoprotein Mdm2 (Homo sapiens, UniProt Q00987); test: Inhibition of p53-MDM2 (1 to 118 residues) interaction (unknown origin) expressed in Escherichia coli BL-21 (DE3) assessed as inhibition of MDM2 binding by fluorescence polarization competitive binding assay
[2] = tested on: SJSA-1; test: Cytotoxicity against human SJSA1 cells after 72 hrs by SRB assay; type: functional, cell-based; conditions: SJSA-1, 72 h
[3] = tested on: HCT-116; test: Cytotoxicity against human HCT116 cells after 72 hrs by SRB assay relative to Nutlin-3; type: functional
[4] = tested on: SW-620; test: Cytotoxicity against human SW620 cells after 72 hrs by SRB assay; type: functional, cell-based; conditions: SW-620, 72 h
[5] = tested on: HCT-116; test: Cytotoxicity against human HCT116 cells after 72 hrs by SRB assay; type: functional, cell-based; conditions: HCT-116, 72 h
[6] = tested on: A549; test: Cytotoxicity against human A549 cells after 72 hrs by SRB assay; type: functional, cell-based; conditions: A549, 72 h
[7] = tested on: PC-3; test: Cytotoxicity against human PC3 cells after 72 hrs by SRB assay; type: functional, cell-based; conditions: PC-3, 72 h

Chain of Tumour suppressor p53/oncoprotein Mdm2 (P04637 whole entry, the tested form may be a part): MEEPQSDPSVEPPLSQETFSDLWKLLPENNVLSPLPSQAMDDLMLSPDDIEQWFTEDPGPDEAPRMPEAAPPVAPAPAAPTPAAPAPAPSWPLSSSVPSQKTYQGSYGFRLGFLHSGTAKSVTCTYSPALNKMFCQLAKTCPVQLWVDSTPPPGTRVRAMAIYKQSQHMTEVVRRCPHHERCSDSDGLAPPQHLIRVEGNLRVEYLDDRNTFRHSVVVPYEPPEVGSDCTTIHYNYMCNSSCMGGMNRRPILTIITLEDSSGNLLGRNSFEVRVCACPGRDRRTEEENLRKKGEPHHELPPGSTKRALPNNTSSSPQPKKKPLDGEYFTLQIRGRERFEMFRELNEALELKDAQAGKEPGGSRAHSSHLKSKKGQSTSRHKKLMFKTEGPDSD
Chain of Tumour suppressor p53/oncoprotein Mdm2 (Q00987 whole entry, the tested form may be a part): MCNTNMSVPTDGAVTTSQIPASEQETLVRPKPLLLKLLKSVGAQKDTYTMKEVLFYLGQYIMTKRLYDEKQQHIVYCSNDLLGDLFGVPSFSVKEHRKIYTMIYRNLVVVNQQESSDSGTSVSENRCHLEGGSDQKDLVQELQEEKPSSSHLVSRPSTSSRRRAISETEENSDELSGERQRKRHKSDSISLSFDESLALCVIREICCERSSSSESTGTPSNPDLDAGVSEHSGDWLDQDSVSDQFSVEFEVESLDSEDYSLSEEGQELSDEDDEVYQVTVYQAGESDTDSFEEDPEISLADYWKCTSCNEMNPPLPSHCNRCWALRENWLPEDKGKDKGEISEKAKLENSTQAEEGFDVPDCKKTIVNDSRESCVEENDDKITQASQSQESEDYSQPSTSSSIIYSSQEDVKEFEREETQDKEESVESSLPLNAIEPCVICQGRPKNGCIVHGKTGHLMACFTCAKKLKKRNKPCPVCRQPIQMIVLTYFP

SMILES | pIC50 [1] | pIC50 [2] | Ratio IC50 [3] | pIC50 [4] | pIC50 [5] | pIC50 [6] | pIC50 [7]
COC(=O)c1c(N)sc(-c2ccc(Cl)cc2)c1-c1ccc(Cl)cc1 | 5.37 | 4.39 | 1.3 | 5.49 | 5.78 | – | –
COc1ccc(C2=NC(c3ccc(Cl)cc3)C(c3ccc(Cl)cc3)N2C(=O)N2CCNC(=O)C2)c(OC(C)C)c1 (racemic) | – | 5.74 | – | 6.42 | 5.33 | 6.39 | 5.20
Nc1sc(-c2ccc(Cl)cc2)c(-c2ccc(Cl)cc2)c1C(=O)Nc1ccccc1 | < 4.30 | < 3.30 | – | 4.40 | 4.84 | – | –
Nc1sc(-c2ccc(Cl)cc2)c(-c2ccc(Cl)cc2)c1C(=O)NC1CC1 | 5.68 | 4.50 | 1.3 | 5.76 | 6.62 | – | –
Nc1sc(-c2ccc(Cl)cc2)c(-c2ccc(Cl)cc2)c1C(=O)N1CCCC1 | 5.55 | 4.75 | 1.3 | 5.41 | 5.44 | – | –
Nc1sc(-c2ccc(Cl)cc2)c(-c2ccc(Cl)cc2)c1C(=O)NC1CCCCC1 | 6.05 | 3.99 | 1.3 | 5.51 | 6.23 | – | –
